Experiments:
[1] = molecular target: Neuronal acetylcholine receptor; alpha4/beta2 (Rattus norvegicus, UniProt P09483+P12390); assay: Displacement of [3H]epibatadine from rat alpha4beta2 nAChR expressed in HEK293 cells by scintillation counting analysis; format: cell-based
[2] = molecular target: Neuronal acetylcholine receptor subunit alpha-7 (Rattus norvegicus, UniProt Q05941); assay: Displacement of [3H]epibatadine from rat alpha7 nAChR expressed in HEK293 cells by scintillation counting analysis; format: cell-based
Rattus norvegicus = species on record: Rattus norvegicus; assay: Selectivity ratio of Ki for rat alpha3beta4 nAChR to Ki for rat alpha4beta2 nAChR
[3] = Displacement of [3H]epibatadine from rat forebrain nAChR expressed in HEK293 cells by scintillation counting analysis; format: cell-based
[4] = molecular target: Neuronal acetylcholine receptor; alpha3/beta4 (Rattus norvegicus, UniProt P04757+P12392); assay: Displacement of [3H]epibatadine from rat alpha3beta4 nAChR expressed in HEK293 cells by scintillation counting analysis; format: cell-based
Sequence of Neuronal acetylcholine receptor; alpha3/beta4 (P04757 whole entry): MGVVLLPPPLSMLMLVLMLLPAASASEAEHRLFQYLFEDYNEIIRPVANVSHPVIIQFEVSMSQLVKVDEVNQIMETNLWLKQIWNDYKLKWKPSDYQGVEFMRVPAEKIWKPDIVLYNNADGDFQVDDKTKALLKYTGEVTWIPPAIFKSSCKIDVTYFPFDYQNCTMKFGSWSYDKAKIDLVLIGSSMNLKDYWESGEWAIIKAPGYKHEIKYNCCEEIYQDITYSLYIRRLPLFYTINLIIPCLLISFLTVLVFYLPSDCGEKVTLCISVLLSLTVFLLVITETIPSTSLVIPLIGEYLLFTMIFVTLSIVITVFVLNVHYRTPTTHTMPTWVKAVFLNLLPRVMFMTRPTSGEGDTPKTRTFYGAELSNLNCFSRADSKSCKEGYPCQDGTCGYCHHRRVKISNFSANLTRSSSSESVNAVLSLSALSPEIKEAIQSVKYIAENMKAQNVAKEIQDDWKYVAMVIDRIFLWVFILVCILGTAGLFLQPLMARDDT
Sequence of Neuronal acetylcholine receptor; alpha3/beta4 (P12392 whole entry): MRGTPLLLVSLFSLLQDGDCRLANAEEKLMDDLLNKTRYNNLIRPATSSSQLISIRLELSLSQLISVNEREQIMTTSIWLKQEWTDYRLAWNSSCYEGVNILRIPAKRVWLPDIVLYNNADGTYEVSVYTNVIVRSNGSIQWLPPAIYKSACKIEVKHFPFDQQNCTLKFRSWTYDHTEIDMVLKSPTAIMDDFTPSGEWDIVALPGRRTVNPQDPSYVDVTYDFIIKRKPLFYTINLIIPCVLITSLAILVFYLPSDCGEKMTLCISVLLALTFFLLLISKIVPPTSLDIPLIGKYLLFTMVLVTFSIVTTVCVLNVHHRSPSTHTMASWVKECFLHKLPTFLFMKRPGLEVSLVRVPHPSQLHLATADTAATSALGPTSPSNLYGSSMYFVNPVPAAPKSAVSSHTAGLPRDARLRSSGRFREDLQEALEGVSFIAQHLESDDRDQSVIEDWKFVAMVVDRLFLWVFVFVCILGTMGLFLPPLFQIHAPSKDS

Sequence of Neuronal acetylcholine receptor subunit alpha-7 (Q05941 whole entry): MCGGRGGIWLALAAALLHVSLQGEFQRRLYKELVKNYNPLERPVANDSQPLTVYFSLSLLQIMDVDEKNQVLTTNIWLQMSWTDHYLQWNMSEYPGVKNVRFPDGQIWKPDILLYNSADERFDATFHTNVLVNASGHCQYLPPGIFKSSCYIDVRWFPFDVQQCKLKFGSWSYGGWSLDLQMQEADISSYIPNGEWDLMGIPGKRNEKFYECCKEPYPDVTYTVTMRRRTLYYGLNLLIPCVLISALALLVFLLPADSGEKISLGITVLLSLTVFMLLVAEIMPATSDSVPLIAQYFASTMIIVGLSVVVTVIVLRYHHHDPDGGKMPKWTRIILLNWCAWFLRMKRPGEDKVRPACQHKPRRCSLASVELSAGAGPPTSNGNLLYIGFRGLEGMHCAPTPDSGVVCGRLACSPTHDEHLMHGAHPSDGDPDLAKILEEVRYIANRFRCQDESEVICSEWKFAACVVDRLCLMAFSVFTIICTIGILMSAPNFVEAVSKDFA
Sequence of Neuronal acetylcholine receptor; alpha4/beta2 (P09483 whole entry): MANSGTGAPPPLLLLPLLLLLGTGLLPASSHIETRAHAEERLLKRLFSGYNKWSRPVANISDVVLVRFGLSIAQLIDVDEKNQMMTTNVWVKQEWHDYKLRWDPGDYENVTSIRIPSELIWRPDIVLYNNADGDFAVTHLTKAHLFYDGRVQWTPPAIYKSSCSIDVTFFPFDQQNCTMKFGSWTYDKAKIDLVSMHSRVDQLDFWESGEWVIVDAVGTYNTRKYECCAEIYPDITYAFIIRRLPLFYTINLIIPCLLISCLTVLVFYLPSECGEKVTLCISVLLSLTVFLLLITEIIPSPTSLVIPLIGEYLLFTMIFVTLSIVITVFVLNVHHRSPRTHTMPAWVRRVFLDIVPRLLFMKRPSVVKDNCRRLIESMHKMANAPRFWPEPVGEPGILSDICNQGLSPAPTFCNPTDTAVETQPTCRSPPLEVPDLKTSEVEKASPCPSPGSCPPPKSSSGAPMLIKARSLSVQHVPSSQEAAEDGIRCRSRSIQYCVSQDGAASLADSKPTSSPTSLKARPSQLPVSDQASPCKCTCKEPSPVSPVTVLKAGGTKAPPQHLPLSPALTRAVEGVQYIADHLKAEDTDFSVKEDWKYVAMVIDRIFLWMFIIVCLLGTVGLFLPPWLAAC
Sequence of Neuronal acetylcholine receptor; alpha4/beta2 (P12390 whole entry): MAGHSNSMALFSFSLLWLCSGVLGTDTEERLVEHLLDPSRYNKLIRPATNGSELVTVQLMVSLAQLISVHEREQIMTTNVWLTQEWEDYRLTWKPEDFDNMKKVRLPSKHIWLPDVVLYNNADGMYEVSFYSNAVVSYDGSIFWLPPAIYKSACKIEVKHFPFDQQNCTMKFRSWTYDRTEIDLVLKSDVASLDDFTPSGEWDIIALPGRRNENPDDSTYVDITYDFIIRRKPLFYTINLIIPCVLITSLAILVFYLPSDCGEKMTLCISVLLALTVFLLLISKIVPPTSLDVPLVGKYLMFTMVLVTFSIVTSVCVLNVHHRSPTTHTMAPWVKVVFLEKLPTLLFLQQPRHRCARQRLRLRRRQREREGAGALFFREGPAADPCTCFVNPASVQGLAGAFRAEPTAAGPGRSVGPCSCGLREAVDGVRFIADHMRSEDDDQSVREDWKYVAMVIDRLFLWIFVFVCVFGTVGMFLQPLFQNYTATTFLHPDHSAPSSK

| Compound | Ki [1] | Ki [2] | Ratio Ki (Rattus norvegicus) | Ki [3] | Ki [4] |
| --- | --- | --- | --- | --- | --- |
| [N-]=[N+]=NCCCCC#Cc1cncc(OC[C@@H]2CCN2)c1 | 0.086 nM | 2700 nM | 40000 | 0.36 nM | 3400 nM |
| CCCCC#Cc1cncc(OC[C@@H]2CCN2)c1 | 0.1 nM | 1900 nM | 17000 | 0.29 nM | 1700 nM |
| CCCCC#Cc1cncc(OC[C@@H]2CCCN2)c1 | 1.2 nM | 35000 nM | 15000 | 5.8 nM | 18000 nM |
| CCCCC#Cc1cncc(OC[C@H]2CCCN2)c1 | 0.49 nM | 9100 nM | 24000 | 7.7 nM | 12000 nM |
| CCCCC#Cc1cncc(OC[C@H]2CCN2)c1 | 0.5 nM | 13000 nM | 10000 | 0.92 nM | 5200 nM |
| c1ncc(-c2nnn3c2CCCC3)cc1OC[C@@H]1CCN1 | 10 nM | 51000 nM | 6200 | 48 nM | 64000 nM |
| OCCCCc1cn(-c2cncc(OC[C@@H]3CCN3)c2)nn1 | 1.3 nM | 100000 nM | 59000 | 8 nM | 77000 nM |

Source: ChEMBL document CHEMBL3286394, “Synthesis and pharmacological characterization of new neuronal nicotinic acetylcholine receptor ligands derived from Sazetidine-A” (Bioorg Med Chem Lett, 2014)
